Experimental data reported in US4311699A, “Aminoacid derivatives of cephalosporin compounds” (priority 1980, dated 1982).
Values after ≈ are worked out from the molar mass of the structure shown.

Legend:
Assay in all cases: in vitro antibacterial activity, minimal inhibitory concentration
Type in all cases: cell-based
Serr. marces. = tested on: Serr. marces.
Source text: (§1) The compounds of the invention are new chemical compounds that are used as pharmacological agents and especially as broad spectrum antibacterial agents. They are active in vitro against strains of both gram-positive and gram-negative bacteria.
(§2) Minimal Inhibitory Concentration (μg/ml)

Entero. cloacae = settings: Enterobacter cloacae
Source text: as §1, §2

Pseudomonas #28 = settings: Pseudomonas #28, in vitro; read-out: Minimal Inhibitory Concentration
Source text: as §1, §2

Pseudomonas UI 18 = settings: UI18; Pseudomonas UI 18, in vitro
Source text: as §1, §2

E. coli Vogel = settings: Escherichia coli
Source text: as §1, §2

E. coli Brig = settings: Escherichia coli
Source text: as §1, §2

Staph. aureus UC-76 = settings: Staphylococcus aureus, UC76; Staph. aureus UC-76, in vitro
Source text: as §1, §2

Prot. vulg. = tested on: Prot. vulg.
Source text: as §1, §2

Staph. aureus S18733 = settings: Staphylococcus aureus
Source text: as §1, §2

Strep. fec. = tested on: Strep. fec.
Source text: as §1, §2

Pseudomonas BRK 12-4-4 = settings: BRK1244; Pseudomonas BRK 12-4-4, in vitro
Source text: as §1, §2

Klebs. pneu. = tested on: Klebs. pneu.
Source text: as §1, §2

Row | Structure (SMILES) | MIC (Serr. marces.) | MIC (Entero. cloacae) | MIC (Pseudomonas #28) | MIC (Pseudomonas UI 18) | MIC (E. coli Vogel) | MIC (E. coli Brig) | MIC (Staph. aureus UC-76) | MIC (Prot. vulg.) | MIC (Staph. aureus S18733) | MIC (Strep. fec.) | MIC (Pseudomonas BRK 12-4-4) | MIC (Klebs. pneu.)
1 | CC(=O)N[C@@H](C(=O)Nc1ccc(-c2ncc(C(=O)N[C@@H](C(=O)N[C@@H]3C(=O)N4C(C(=O)O)=C(COC(C)=O)CS[C@H]34)c3ccccc3)c(O)n2)cc1)C(C)C [Example 17, N-[2-[4-(N-Acetyl-D-valylamino)phenyl]-4-hydroxy-5-pyrimidinylcarbonyl]-7-[D-2-amino-2-phenylacetamido]-3-acetoxymethyl-3-cephem-4-carboxylic acid] | > 50 µg/mL | 25 µg/mL (≈ 32.9 µM) | 6.3 µg/mL (≈ 8.29 µM) | 6.3 µg/mL (≈ 8.29 µM) | 6.3 µg/mL (≈ 8.29 µM) | 12.5 µg/mL (≈ 16.5 µM) | 1.6 µg/mL (≈ 2.11 µM) | 25 µg/mL (≈ 32.9 µM) | 6.3 µg/mL (≈ 8.29 µM) | 50 µg/mL (≈ 65.8 µM) | 12.5 µg/mL (≈ 16.5 µM) | 12.5 µg/mL (≈ 16.5 µM)
2 | CC(=O)NCCCCC(NC(C)=O)C(=O)Nc1ccc(-c2ncc(C(=O)N[C@@H](C(=O)N[C@@H]3C(=O)N4C(C(=O)O)=C(COC(C)=O)CS[C@H]34)c3ccccc3)c(O)n2)cc1 (mixture of isomers) [Example 12, N-[2-[4-(N^α,N^ω -Diacetyl-DL-lysylamino)phenyl]-4-hydroxy-5-pyrimidinylcarbonyl]-7-[D-2-amino-2-phenylacetamido]-3-acetoxymethyl-3-cephem-4carboxylic acid] | > 50 µg/mL | 25 µg/mL | 6.3 µg/mL | 6.3 µg/mL | 6.3 µg/mL | 50 µg/mL | 1.6 µg/mL | 50 µg/mL | 6.3 µg/mL | 50 µg/mL | 12.5 µg/mL | 25 µg/mL
3 | CC(=O)NCCCC(=O)Nc1ccc(-c2ncc(C(=O)N[C@@H](C(=O)N[C@@H]3C(=O)N4C(C(=O)O)=C(COC(C)=O)CS[C@H]34)c3ccccc3)c(O)n2)cc1 [Example 16, N-[2-[4-(N-Acetyl-γ-aminobutyrylamino)phenyl]-4-hydroxy-5-pyrimidinylcarbonyl]-7-[D-2-amino-2-phenylacetamido]-3-acetoxy-methyl-3-cephem-4-carboxylic acid] | > 50 µg/mL | 25 µg/mL (≈ 33.5 µM) | 6.3 µg/mL (≈ 8.45 µM) | 12.5 µg/mL (≈ 16.8 µM) | 6.3 µg/mL (≈ 8.45 µM) | 50 µg/mL (≈ 67 µM) | 0.8 µg/mL (≈ 1.07 µM) | 25 µg/mL (≈ 33.5 µM) | 3.1 µg/mL (≈ 4.16 µM) | 25 µg/mL (≈ 33.5 µM) | 12.5 µg/mL (≈ 16.8 µM) | 12.5 µg/mL (≈ 16.8 µM)
4 | CC(=O)NCCCC(=O)Nc1ccc(-c2ncc(C(=O)N[C@@H](C(=O)NC3C(=O)N4C(C(=O)O)=C(CSc5nnnn5C)CSC34)c3ccccc3)c(O)n2)cc1 (stereo partly drawn) [Example 27, N-[2-[4-(N-Acetyl-aminobutyrylamino)phenyl]-4-hydroxy-5-pyrimidinylcarbonyl]-7-[D-2-amino-2-phenylacetamido]-3-[[(1-methyl-1H-tetrazol-5-yl)thio]methyl]-3-cephem-4-carboxylic acid] | 25 µg/mL (≈ 31.2 µM) | 6.3 µg/mL (≈ 7.86 µM) | 3.1 µg/mL (≈ 3.87 µM) | 6.3 µg/mL (≈ 7.86 µM) | 1.6 µg/mL (≈ 2 µM) | 12.5 µg/mL (≈ 15.6 µM) | 1.6 µg/mL (≈ 2 µM) | 12.5 µg/mL (≈ 15.6 µM) | 6.3 µg/mL (≈ 7.86 µM) | 25 µg/mL (≈ 31.2 µM) | 12.5 µg/mL (≈ 15.6 µM) | 1.6 µg/mL (≈ 2 µM)
5 | CC(=O)N[C@@H](C)C(=O)Nc1ccc(-c2ncc(C(=O)N[C@@H](C(=O)N[C@@H]3C(=O)N4C(C(=O)O)=C(COC(C)=O)CS[C@H]34)c3ccccc3)c(O)n2)cc1 [Example 10, N-[2-[4-(N-Acetyl-L-alanylamino)phenyl]-4-hydroxy-5-pyrimidinylcarbonyl]-7-[D-2-amino-2-phenylacetamido]-3-acetoxy-methyl-3-cephem-4-carboxylic acid] | > 50 µg/mL | 50 µg/mL (≈ 68.3 µM) | 6.3 µg/mL (≈ 8.61 µM) | 6.3 µg/mL (≈ 8.61 µM) | 12.5 µg/mL (≈ 17.1 µM) | 25 µg/mL (≈ 34.2 µM) | 3.1 µg/mL (≈ 4.24 µM) | 25 µg/mL (≈ 34.2 µM) | 6.3 µg/mL (≈ 8.61 µM) | 50 µg/mL (≈ 68.3 µM) | 12.5 µg/mL (≈ 17.1 µM) | 25 µg/mL (≈ 34.2 µM)
6 | CC(=O)N[C@@H](C)C(=O)Nc1ccc(-c2ncc(C(=O)N[C@@H](C(=O)NC3C(=O)N4C(C(=O)O)=C(CSc5nnnn5C)CSC34)c3ccccc3)c(O)n2)cc1 (stereo partly drawn) [Example 26, N-[2-[4-(N-Acetyl-L-alanylamino)phenyl]-4-hydroxy-5-pyrimidinylcarbonyl]-7-[D-2-amino-2-phenylacetamido]-3-[[(1-methyl-1H-tetrazol-5-yl)thio]methyl]-3-cephem-4-carboxylic acid] | 50 µg/mL (≈ 63.5 µM) | 12.5 µg/mL (≈ 15.9 µM) | 6.3 µg/mL (≈ 8 µM) | 12.5 µg/mL (≈ 15.9 µM) | 3.1 µg/mL (≈ 3.93 µM) | 12.5 µg/mL (≈ 15.9 µM) | 6.3 µg/mL (≈ 8 µM) | 12.5 µg/mL (≈ 15.9 µM) | 12.5 µg/mL (≈ 15.9 µM) | 50 µg/mL (≈ 63.5 µM) | 12.5 µg/mL (≈ 15.9 µM) | 6.3 µg/mL (≈ 8 µM)
